Test results as given in US10011578B2, “Compounds for stabilizing ryanodine receptors from aberrant levels of calcium release” (Rosalind Franklin University of Medicine and Science, priority 2013, dated 2018).
Entries after “also recorded” stand apart in the source; their conditions may differ.

How the values were obtained:
RyR [1] = assay: RyR-evoked calcium response in CA1 pyramidal neurons of hippocampal brain slices, acute incubation; assay type: cell-based, mouse; settings: 3×Tg-AD hippocampal slices, caffeine, 10 μM, 1 hour incubation
Method: 3×Tg-AD, TgCRND8, PS1/APP, and nontransgenic (NonTg) J29/C57BL6 control mice were bred in-house. Adult male and female mice 3-5 months old were used. Animals were cared for and used in accordance with protocols approved by the Rosalind Franklin University of Medicine and Science Animal Care and Use Committee. […] Whole-cell patch-clamp recordings were conducted at room temperature (23° C.) in continuously superfused aCSF (1.5-2.0 mL/min). […] Hippocampal CA1 pyramidal neurons were identified visually via infrared differential interference contrast (IR-DIC) optics, and electrophysiologically by their passive membrane properties and spike frequency accommodation. […] Minianalysis 6.0.7 (Synaptosoft, Fort Lee, N.J.) was used to detect and measure spontaneous excitatory postsynaptic potential (sEPSP) events with a minimal amplitude of 0.2 mV and minimal area of 3 mV*msec.
(§1) Voltage-gated Ca^2+ channel (VGCC) responses were elicited by depolarization via current injected through the patch pipette with the current level adjusted to elicit a train of 8-10 spikes.

[2] = Sub-chronic in vivo treatment of 3×Tg-AD mice, heart weight and body weight; set-up: species or system mouse; settings: 10 mg/kg ip, 4 weeks
Method: Ca^2+ signaling and electrophysiological properties of CA1 pyramidal neurons were studied in hippocampal brain slices according to the protocols disclosed in Example 1. Briefly, 3×Tg-AD mice were treated with either saline (0.9%), CK013 or CK017 for four weeks (10 mg/kg; ip), and then acute hippocampal brain slice preparations were made for the purposes of performing whole cell patch clamp recordings and 2-photon calcium imaging in CA1 pyramidal neurons. The objective was to determine if our compounds could restore normal RyR-mediated calcium signaling in the AD mice and maintain normal membrane physiology.
Also, passive membrane properties such as resting membrane potential and membrane input resistance were not affected by these compounds. […] Additionally, there were no statistically significant differences in the ratio of heart weight:body weight among the treatment groups (Table 4; p>0.05), nor were there differences in absolute body weights or heart weights among the groups (data not shown; […]).

RyR [3] = assay: Sub-chronic in vivo treatment of 3×Tg-AD mice, RyR-evoked calcium responses in CA1 neurons; set-up: species or system mouse; settings: 10 mg/kg ip, 4 weeks, 10 mM caffeine on acute slices
Method: 3×Tg-AD, TgCRND8, PS1/APP, and nontransgenic (NonTg) J29/C57BL6 control mice were bred in-house. Adult male and female mice 3-5 months old were used. Animals were cared for and used in accordance with protocols approved by the Rosalind Franklin University of Medicine and Science Animal Care and Use Committee. Hippocampal brain slices (300 μm) were prepared as previously described (Briggs et al., Neurobiol. Aging, 2013, 34:1632-1643). Mice were anesthetized with halothane, decapitated, and the brain removed into ice-cold sucrose cutting solution (200 mM sucrose, 1.5 mM KCl, 0.5 mM CaCl2, 4.0 mM MgCl2, 1.0 mM KH2PO4, 25 mM NaHCO3, 10 mM Na-ascorbate, and 20 mM dextrose, equilibrated with 95% O2/5% CO2). Horizontal hippocampal slices were prepared in a Camden Instruments vibratome with the chamber filled with ice-cold sucrose cutting solution and then transferred to and maintained in standard artificial cerebrospinal fluid (aCSF; 130 mM NaCl, 2.5 mM KCl, 2.0 mM CaCl2, 1.2 mM MgSO4, 1.25 mM NaH2PO4, 25 mM NaHCO3, and 10 mM dextrose [305-310 mOsm], equilibrated with 95% O2/5% CO2, pH 7.3-7.4) at 32° C. for at least 1 hour before use. […] Membrane potentials were obtained in current-clamp mode, acquired at 10 kHz with a Digidata 1322 A-D converter and Multiclamp 700B amplifier, and recorded and analyzed using pClamp 10.2 (Molecular Devices). […]

[4] = Brain/plasma ratio, brain levels in vivo; settings: for Kp: brain and plasma
Log P (Table 1) = assay type: physicochemical
[5] = target: T1, RyR (RyR2-expressing N2A cell line) (Mus musculus, UniProt E9Q401); assay: RyR-evoked (caffeine) calcium response in N2A cells, 2-photon fura-2 imaging; assay type: cell-based; settings: for effect on caffeine-stimulated Ca^2+ release compared with dantrolene: 10 μM; for Ca^2+ Inc (Ca^2+ increase over baseline): caffeine-stimulated, compounds tested at 10 μM
T1 construct: tested using a RyR2-expressing N2A cell line; host or cells: N2a (Neuro-2a) cells
T1 sequence (E9Q401 whole entry): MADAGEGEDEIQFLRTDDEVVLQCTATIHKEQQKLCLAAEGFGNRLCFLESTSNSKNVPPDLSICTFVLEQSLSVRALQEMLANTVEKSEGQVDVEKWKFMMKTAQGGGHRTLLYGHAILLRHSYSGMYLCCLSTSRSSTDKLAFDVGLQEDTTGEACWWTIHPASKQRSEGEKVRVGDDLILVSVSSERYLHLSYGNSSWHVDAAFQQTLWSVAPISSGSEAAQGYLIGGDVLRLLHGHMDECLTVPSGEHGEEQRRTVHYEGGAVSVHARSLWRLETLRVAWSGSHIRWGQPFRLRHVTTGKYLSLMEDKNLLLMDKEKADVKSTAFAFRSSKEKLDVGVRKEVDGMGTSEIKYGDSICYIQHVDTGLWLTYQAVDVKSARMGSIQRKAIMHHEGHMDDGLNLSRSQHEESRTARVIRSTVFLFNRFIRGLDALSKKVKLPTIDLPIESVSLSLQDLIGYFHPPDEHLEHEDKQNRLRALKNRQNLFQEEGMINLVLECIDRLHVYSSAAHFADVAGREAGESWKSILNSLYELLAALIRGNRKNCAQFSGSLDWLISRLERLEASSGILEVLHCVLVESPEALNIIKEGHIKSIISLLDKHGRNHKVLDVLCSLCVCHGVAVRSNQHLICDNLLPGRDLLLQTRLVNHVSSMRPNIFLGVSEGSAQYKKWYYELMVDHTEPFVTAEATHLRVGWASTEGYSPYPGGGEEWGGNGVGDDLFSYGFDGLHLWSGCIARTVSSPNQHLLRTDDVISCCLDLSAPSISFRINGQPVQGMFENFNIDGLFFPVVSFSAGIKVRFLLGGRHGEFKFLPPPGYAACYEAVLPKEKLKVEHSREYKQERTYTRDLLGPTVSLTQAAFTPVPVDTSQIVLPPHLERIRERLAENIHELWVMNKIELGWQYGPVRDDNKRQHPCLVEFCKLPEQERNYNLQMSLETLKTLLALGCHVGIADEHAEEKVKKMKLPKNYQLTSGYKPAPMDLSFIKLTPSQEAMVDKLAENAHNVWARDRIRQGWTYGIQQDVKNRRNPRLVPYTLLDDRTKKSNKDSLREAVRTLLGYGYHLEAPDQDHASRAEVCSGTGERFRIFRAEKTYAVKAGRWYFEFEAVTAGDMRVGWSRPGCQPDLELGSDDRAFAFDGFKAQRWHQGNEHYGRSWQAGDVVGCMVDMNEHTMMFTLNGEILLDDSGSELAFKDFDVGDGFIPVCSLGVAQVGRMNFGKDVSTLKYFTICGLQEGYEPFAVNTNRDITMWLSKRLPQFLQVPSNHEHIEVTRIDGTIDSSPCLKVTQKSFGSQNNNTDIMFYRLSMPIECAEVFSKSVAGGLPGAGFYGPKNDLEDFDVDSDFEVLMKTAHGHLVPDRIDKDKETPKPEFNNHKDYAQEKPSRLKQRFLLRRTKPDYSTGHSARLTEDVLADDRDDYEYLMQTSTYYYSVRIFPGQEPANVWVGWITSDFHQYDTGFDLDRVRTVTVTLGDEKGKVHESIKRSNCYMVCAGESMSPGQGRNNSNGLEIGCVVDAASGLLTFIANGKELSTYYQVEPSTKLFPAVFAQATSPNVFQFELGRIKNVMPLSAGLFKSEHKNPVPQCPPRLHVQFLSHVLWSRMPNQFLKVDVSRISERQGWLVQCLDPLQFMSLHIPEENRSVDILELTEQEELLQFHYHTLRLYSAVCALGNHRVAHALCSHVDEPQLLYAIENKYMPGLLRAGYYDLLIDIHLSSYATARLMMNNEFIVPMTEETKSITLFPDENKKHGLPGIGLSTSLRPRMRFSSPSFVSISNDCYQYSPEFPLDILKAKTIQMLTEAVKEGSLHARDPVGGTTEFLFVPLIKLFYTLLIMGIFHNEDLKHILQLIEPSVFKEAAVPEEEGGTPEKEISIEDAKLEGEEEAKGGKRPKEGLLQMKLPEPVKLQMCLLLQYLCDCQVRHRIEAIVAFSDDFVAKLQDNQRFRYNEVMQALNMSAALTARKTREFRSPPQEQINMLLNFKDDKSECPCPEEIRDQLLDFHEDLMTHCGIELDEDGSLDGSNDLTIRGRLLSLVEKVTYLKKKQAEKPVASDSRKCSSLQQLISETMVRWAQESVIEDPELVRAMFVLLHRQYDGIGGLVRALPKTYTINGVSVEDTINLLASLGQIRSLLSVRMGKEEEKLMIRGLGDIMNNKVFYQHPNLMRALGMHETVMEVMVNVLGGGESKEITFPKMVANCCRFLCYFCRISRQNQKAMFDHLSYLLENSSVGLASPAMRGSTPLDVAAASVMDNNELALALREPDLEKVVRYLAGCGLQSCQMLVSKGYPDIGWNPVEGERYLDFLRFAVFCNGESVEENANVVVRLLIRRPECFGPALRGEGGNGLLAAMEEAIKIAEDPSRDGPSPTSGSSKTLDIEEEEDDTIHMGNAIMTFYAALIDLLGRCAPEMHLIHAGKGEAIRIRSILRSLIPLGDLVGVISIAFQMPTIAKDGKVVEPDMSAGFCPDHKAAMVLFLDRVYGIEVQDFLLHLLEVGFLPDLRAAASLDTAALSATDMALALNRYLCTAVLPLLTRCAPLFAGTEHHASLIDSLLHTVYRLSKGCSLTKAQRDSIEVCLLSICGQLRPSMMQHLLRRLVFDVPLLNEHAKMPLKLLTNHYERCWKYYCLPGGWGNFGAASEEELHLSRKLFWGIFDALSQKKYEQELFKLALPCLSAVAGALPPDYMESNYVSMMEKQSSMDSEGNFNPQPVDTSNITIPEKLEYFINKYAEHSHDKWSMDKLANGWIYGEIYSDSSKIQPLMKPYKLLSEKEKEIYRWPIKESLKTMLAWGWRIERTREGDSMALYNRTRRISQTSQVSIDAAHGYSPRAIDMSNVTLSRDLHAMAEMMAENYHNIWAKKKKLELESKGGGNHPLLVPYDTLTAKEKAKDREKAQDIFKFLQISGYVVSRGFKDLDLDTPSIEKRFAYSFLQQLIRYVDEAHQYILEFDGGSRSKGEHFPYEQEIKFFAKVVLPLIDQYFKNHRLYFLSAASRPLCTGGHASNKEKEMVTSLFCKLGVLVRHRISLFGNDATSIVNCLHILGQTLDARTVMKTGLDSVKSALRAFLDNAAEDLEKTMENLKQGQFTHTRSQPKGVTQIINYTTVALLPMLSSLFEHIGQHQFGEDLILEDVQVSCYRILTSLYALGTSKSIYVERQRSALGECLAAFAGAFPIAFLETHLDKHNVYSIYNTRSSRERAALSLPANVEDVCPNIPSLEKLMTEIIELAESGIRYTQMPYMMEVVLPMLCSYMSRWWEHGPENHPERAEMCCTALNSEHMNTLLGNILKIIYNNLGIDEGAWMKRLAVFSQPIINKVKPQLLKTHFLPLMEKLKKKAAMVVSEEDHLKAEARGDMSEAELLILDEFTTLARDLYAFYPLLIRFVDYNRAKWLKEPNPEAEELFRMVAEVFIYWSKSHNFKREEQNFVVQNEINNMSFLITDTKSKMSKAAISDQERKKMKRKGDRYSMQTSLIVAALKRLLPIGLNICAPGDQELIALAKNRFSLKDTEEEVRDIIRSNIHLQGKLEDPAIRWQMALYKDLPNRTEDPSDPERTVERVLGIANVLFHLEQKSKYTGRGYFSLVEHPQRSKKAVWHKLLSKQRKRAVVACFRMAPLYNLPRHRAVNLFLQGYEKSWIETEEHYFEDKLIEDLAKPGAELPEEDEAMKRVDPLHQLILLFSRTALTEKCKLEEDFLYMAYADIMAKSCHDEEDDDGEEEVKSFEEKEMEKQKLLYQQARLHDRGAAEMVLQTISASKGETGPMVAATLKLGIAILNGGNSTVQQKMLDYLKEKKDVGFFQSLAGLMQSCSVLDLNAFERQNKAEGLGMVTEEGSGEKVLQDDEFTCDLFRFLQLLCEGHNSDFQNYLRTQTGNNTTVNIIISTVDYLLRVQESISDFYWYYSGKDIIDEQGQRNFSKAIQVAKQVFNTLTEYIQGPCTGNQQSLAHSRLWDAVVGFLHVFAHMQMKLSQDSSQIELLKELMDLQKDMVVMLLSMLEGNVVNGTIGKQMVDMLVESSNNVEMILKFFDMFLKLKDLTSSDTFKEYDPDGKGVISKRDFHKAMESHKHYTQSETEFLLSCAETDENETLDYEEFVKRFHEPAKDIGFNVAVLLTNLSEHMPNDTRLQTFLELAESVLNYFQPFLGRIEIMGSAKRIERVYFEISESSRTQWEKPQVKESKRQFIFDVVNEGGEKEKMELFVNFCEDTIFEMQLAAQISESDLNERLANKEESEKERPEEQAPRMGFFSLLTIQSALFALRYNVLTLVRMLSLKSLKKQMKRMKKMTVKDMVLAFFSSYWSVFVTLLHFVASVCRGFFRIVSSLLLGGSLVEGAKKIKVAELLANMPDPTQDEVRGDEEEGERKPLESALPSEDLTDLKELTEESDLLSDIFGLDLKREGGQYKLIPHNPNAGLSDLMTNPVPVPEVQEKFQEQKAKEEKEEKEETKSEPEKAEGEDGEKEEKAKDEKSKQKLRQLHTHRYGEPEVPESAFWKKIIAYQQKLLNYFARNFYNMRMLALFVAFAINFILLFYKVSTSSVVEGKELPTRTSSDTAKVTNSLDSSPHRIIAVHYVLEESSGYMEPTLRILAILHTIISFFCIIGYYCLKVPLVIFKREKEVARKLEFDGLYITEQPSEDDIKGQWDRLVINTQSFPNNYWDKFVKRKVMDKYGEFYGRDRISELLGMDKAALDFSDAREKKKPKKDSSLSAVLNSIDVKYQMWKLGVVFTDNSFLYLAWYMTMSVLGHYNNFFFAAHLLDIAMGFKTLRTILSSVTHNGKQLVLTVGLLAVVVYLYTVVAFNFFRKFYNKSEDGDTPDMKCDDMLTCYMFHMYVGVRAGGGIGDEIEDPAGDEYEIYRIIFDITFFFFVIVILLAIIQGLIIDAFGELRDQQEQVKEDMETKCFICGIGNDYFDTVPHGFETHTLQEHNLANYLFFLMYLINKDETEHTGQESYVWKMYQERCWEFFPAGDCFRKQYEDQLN
Method: All incubations and washes were at 37° C. with 10% CO2.
Glass cover slips with fura 2-AM-filled N2a cells were placed in a submersion chamber on the stage of an upright Olympus BX51 microscope which is coupled to a 2-photon laser imaging system. […] Ca^2+ imaging of individual cells was accomplished using a custom-made video-rate 2-photon imaging system. Laser excitation was provided by 100 fs pulses at 780 nm (80 MHz) from a Ti:sapphire laser (Mai Tai Broadband, Spectra-Physics). The laser beam was scanned by a resonant galvanometer (General Scanning Lumonics), allowing rapid (7.9 kHz) bidirectional scanning in the x-axis, and by a conventional linear galvanometer in the y-axis, to provide a full-frame scan rate of 30 frames/s. The laser beam was focused onto the cells through an Olympus 40× water-immersion objective (numerical aperture 0.8). Emitted fluorescence light was detected by a wide-field photomultiplier (Electron Tubes) to derive a video signal that was captured and analyzed by Video Savant 5.0 software (10 Industries). Further analysis of background-corrected images was performed using MetaMorph software. For clarity, results are expressed as inverse ratios so that increases in [Ca^2+ correspond to increasing ratios. The % change is calculated as [(F0/ΔF)−1]*100 where F0 is the average resting fluorescence at baseline and ΔF is the decrease of fluorescence reflecting Ca^2+ release. Differences between treatment groups were assessed using two-way ANOVA and Scheffe post hoc analysis for significance (p<0.05). Somatic Ca^2+ responses in all cells in the field of view were analyzed (n=8-20), with the nucleus region excluded. All compounds were tested in triplicate.

[6] = Aqueous solubility at pH 7.4; assay type: physicochemical
TG-CRND8 AD mice = assay: Chronic dantrolene in TgCRND8 AD mice, CP13 phospho-tau immunostaining; assay type: in vivo, mouse; settings: 10 mg/kg IP, 4 weeks
Method: Mice are deeply anesthetized with urethane, the thoracic cavity opened, and cannula inserted into the left ventricle of the heart, and a small hole cut into the right atrium. Ice cold saline (3 mL) and then 4% paraformaldehyde (5 mL), or 4% paraformaldehyde/1% glutaraldehyde are perfused through the circulatory system. Following this, the mice are decapitated with sharp scissors and the brain prepared for staining or microscopy.

[7] = system: AD mouse models (3×Tg-AD and PS1/APP); assay: 4-week dantrolene treatment in AD mouse models (3×Tg-AD, APP/PS1): calcium, amyloid, synaptic integrity, RyR2 expression; assay type: in vivo
Method: 3×Tg-AD, TgCRND8, PS1/APP, and nontransgenic (NonTg) J29/C57BL6 control mice were bred in-house. Adult male and female mice 3-5 months old were used. Animals were cared for and used in accordance with protocols approved by the Rosalind Franklin University of Medicine and Science Animal Care and Use Committee. Hippocampal brain slices (300 μm) were prepared as previously described (Briggs et al., Neurobiol. Aging, 2013, 34:1632-1643). Mice were anesthetized with halothane, decapitated, and the brain removed into ice-cold sucrose cutting solution (200 mM sucrose, 1.5 mM KCl, 0.5 mM CaCl2, 4.0 mM MgCl2, 1.0 mM KH2PO4, 25 mM NaHCO3, 10 mM Na-ascorbate, and 20 mM dextrose, equilibrated with 95% O2/5% CO2). Horizontal hippocampal slices were prepared in a Camden Instruments vibratome with the chamber filled with ice-cold sucrose cutting solution and then transferred to and maintained in standard artificial cerebrospinal fluid (aCSF; 130 mM NaCl, 2.5 mM KCl, 2.0 mM CaCl2, 1.2 mM MgSO4, 1.25 mM NaH2PO4, 25 mM NaHCO3, and 10 mM dextrose [305-310 mOsm], equilibrated with 95% O2/5% CO2, pH 7.3-7.4) at 32° C. for at least 1 hour before use. Whole-cell patch-clamp recordings were conducted at room temperature (23° C.) in continuously superfused aCSF (1.5-2.0 mL/min). Patch pipettes (5-7 MO) were filled with intracellular solution (135 mM K-gluconate, 2.0 mM MgCl2, 4.0 mM Na2-ATP, 0.4 mM Na-GTP, 10 mM Na-phosphocreatine, 10 mM HEPES adjusted to pH 7.3 with KOH) plus 50 μM bis-fura-2 hexapotassium (Life Technologies) as fluorescent Ca^2+ sensor. Hippocampal CA1 pyramidal neurons were identified visually via infrared differential interference contrast (IR-DIC) optics, and electrophysiologically by their passive membrane properties and spike frequency accommodation. Membrane potentials were obtained in current-clamp mode, acquired at 10 kHz with a Digidata 1322 A-D converter and Multiclamp 700B amplifier, and recorded and analyzed using pClamp 10.2 (Molecular Devices). Minianalysis 6.0.7 (Synaptosoft, Fort Lee, N.J.) was used to detect and measure spontaneous excitatory postsynaptic potential (sEPSP) events with a minimal amplitude of 0.2 mV and minimal area of 3 mV*msec. See Chakroborty et al., 2012, J. Neurosci. 32(24):8341-53 for further experimental details.
as §1

[8] = chronic oral treatment (10+ months); cited from earlier work

SMILES	logP (Log P (Table 1))	effect on caffeine-stimulated Ca^2+ release compared with dantrolene [5]	Ca^2+ Inc (Ca^2+ increase over baseline) [5] [fold]	also measured
O=C(Cc1ccccc1)N/N=C/c1ccc(-c2ccccc2)o1 [CK013]	–	–	–	RyR-evoked calcium response in AD neurons (RyR [1]): normalized aberrant RyR-evoked calcium signals; also recorded: significantly reduced to within physiological levels; Ratio of heart weight:body weight [2]: 4.06 × 10^−3; RyR-evoked calcium responses after chronic treatment (RyR [3]): not different from the NonTg control responses; also recorded: not different from the control NonTg saline treated mice
O=C(N/N=C/c1ccc(-c2ccc(Cl)cc2)o1)N/N=C/c1ccc(-c2ccc(Cl)cc2)o1 [CK017]	–	–	–	RyR-evoked calcium response in AD neurons (RyR [1]): normalized aberrant RyR-evoked calcium signals; also recorded: significantly reduced to within physiological levels; Ratio of heart weight:body weight [2]: 3.6 × 10^−3; RyR-evoked calcium responses after chronic treatment (RyR [3]): not different from the NonTg control responses; also recorded: not different from the control NonTg saline treated mice
O=C1CN(/N=C/c2ccc(-c3ccccc3)o2)C(=O)N1 [RD05]	1.8	block calcium release to a greater degree than dantrolene; also recorded: comparable or superior effects on Ca^2+ release	1.43	CNS penetration compared with dantrolene [4]: markedly improved; brain levels relative to those of dantrolene [4]: > 50 times; Kp [4]: 0.5; solubility compared with dantrolene [6]: markedly improved solubility
CC(=O)N/N=C/c1ccc(-c2cccc([N+](=O)[O-])c2)o1 [RD09]	2.5	block calcium release to a greater degree than dantrolene	1.06	–
CN1CCN(C(=O)N/N=C/c2ccc(-c3ccc([N+](=O)[O-])cc3Cl)o2)CC1 [RD10]	3.4	–	4.25	–
O=C(N/N=C/c1ccc(-c2cccc([N+](=O)[O-])c2)o1)c1ccccn1 [RD11]	3	block calcium release to a greater degree than dantrolene	1.38	–
Cc1c(-c2ccc(/C=N/NC(N)=O)o2)ccc([N+](=O)[O-])c1C [RD14]	3.2	comparable to dantrolene's effect; also recorded: comparable or superior effects on Ca^2+ release	2.38	CNS penetration compared with dantrolene [4]: markedly improved; Kp [4]: 1.6; solubility compared with dantrolene [6]: markedly improved solubility
O=C(N/N=C/c1ccc(-c2ccc([N+](=O)[O-])cc2Cl)o1)Nc1ccccc1 [RD54]	5.1	–	>6	–
O=C(N/N=C/c1ccc(-c2ccc(Br)cc2)o1)c1ccc([N+](=O)[O-])cc1 [RD77]	5	–	>6	–
O=C(N/N=C/c1ccc(-c2ccc([N+](=O)[O-])cc2)o1)c1ccc(Cl)cc1Cl [RD83]	5.5	–	>6	–
O=C(N/N=C/c1ccc(-c2cccc(Cl)c2Cl)o1)c1ccccn1 [RD91]	4.4	–	>6	–
O=C1CN(/N=C/c2ccc(-c3ccc([N+](=O)[O-])cc3)o2)C(O)=N1 [dantrolene, 1-{[5-(4-nitrophenyl)-2-furyl]methylideneamino} imidazolidine-2,4-dione]	–	–	1.96	phospho-tau (CP13) staining, dentate gyrus (TG-CRND8 AD mice): reduces phosphorylated tau; also recorded: significantly reduced; reduction of the evoked RyR-calcium response ([5]; caffeine (10 mM), pre-incubated 30 minutes): over 60%; soluble and insoluble Aβ deposition ([7]; 3×Tg-AD and PS1/APP, 4-week treatment, 5-10 mg/kg): significantly reduced; synaptic integrity (synaptophysin/PSD-95 colocalization), synaptic transmission properties ([7]; AD mice, 4-week treatment): restored synaptic transmission properties and synaptic integrity; ER calcium responses (soma, dendrites, dendritic spines) ([7]; AD mice, 4-week treatment, 5-10 mg/kg): returned the exaggerated ER-Ca^2+ release in dendritic spines to NonTg levels; also recorded: normalizes this calcium response; RyR2 mRNA expression levels, hippocampus ([7]; AD-Tg mice, 10 mg/kg, 4 weeks): normalized expression levels of RyR2; reduction of beta amyloid levels (4G8 immunostaining) ([7]; hippocampus and cortex, 4-week treatment): 45%; amyloid pathology [8]: increase amyloid pathology
